Reference: PMC9965125, “New NSAID Conjugates as Potent and Selective COX-2 Inhibitors: Synthesis, Molecular Modeling and Biological Investigation” (Molecules, 2023)

What was measured:
[1] = target: T1, COX-2 (Homo sapiens, UniProt P35354); experiment: COX-2 inhibitor screening assay (fluorometric kit); type: biochemical; settings: for SI: SI = IC50 (COX-1)/IC50 (COX-2); for IC50: read-out: IC50, μM ± SD COX-2
T1 construct: purchased BioVision Incorporated K547-100 and K548-100
T1 sequence (P35354 18-604): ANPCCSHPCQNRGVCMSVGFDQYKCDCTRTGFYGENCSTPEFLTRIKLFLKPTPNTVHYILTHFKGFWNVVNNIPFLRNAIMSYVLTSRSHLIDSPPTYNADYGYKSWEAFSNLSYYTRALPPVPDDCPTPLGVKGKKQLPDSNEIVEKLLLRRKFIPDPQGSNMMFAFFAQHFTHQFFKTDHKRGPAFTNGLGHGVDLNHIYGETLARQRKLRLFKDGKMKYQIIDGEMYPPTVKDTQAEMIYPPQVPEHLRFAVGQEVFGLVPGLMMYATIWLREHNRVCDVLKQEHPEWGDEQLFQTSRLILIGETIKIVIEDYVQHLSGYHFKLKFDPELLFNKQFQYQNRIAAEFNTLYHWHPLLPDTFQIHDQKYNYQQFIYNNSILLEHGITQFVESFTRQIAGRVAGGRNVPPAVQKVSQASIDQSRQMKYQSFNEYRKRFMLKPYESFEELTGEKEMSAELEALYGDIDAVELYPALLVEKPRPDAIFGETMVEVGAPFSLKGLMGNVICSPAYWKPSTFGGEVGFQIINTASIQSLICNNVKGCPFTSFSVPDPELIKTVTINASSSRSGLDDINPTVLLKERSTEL
Description: the manufactor’s instructions.
The COX-1/2 inhibitor screening protocols can be summarized in following:
The test compound is dissolved in DMSO. Dilute to 10X the desired test concentration with COX-1 Assay Buffer before use. Add 10 μl diluted test inhibitor or Assay Buffer into assigned wells as sample screen [S] or Enzyme Control [EC] (no inhibitor) respectively. Add 2 μl of SC560 (in case […]
the wells as Inhibitor Control [IC].
Dilute COX Cofactor 200 times by adding 2 μl of COX Cofactor to 398 μl of COX Assay Buffer just before use. Mix well. Prepare Arachidonic Acid solution by adding 5 μl of supplied Arachidonic Acid to 5 μl of NaOH just before use. Vortex briefly to mix. Dilute Arachidonic Acid/NaOH solution 10 times by adding 90 μl ddH2O, vortex briefly to mix. Make as much as […]
For each well, prepare 80 μl of master mix as follows:
Diluted COX Cofactor 2 μl
Add 80 μl of Reaction Mix into each well. Use a multi -channel pipette to add 10 μl of diluted Arachidonic Acid/NaOH solution into each well to initiate all the reactions at the same time.
(T1 and T2) in the linear range of the plot and obtain the corresponding fluorescence values (RFU 1 […]
Calculate the slope for all samples, including Enzyme Control (EC), by dividing the net ΔRFU (RFU2 – RFU1) values by the time ΔT (T2 – T1). Calculate % Relative Inhibition as follows:
% Relative Inhibition = Slope of EC − Slope of S X 100

[2] = system: gastric mucosa; settings: both, albino, mouse, in vivo, 3 days; for % Incidence of Ulcer Divided by 10 / Average Severity of Ulcer / Average of Ulcer Number / Number of Animals with Ulcer: po, 10 mg/kg
Description: The ulcerogenic liability was determined in albino mice obeying the standard method.
Animals of either sex (pregnant females were excluded) weighing 20 –25 g were divided into 8 groups of 6 animals each. The animals fasted 18 h before drug administration.
80 administered orally for three successive days to fasted animals at a dose of 10 mg kg-1 (animal […]
The control group animals were given water only with few drops of Tween 80. The animals were sacrificed by cervical dislocation and the stomach was removed, opened along the greater curvature and rinsed with saline. The gastric mucosa was examined with a magnifying lens (10x) for the presence of lesions and ero sions. The ulcer index was calculated (Table 4) and the degree of ulcerogenic effect was expressed in terms of.
1. The percentage incidence of ulcers divided by 10.
2. Average number of ulcers per stomach.
3. Average severity of ulcers.
The ulcer index is the value that resulted from the sum of the above three values. […]

[3] = system: hot plate latency; experiment: hot plate assay (central analgesic); type: in vivo, mice; settings: for % Protection / Latency Period ± SE: 10 mg/kg indomethacin mol equivalent i.p.; for Latency Period ± SE: cutoff 15 sec; for Potency: at 120 min compared to indomethacin
[4] = system: mice; experiment: toxicological bioassay; type: in vivo; settings: five times the anti-inflammatory dose (50 mg/kg indomethacin mol equivalent); recorded 24 h post-administration
Description: Five times the anti-inflammatory dose was orally administrated. […]
5a, 5b, 5d, 5e) was determined utilizing the standard method in mice. Albino mice weighing 20–25 g were divided into 6 groups of 6 mice each. Administrations of the tested compounds dissolved in distilled water by the aid of few drops of Tween 80 were given intraperitoneally in 50 […]
inflammatory dosage). The control group was given water only with few drops of Tween 80. The toxic symptoms and mortality rates were recorded 24 h post -administration in each group.

[5] = system: acetic acid-induced abdominal writhing; experiment: acetic acid-induced abdominal writhing assay (peripheral analgesic); type: in vivo, mice; settings: for % Inhibition/Protection / Writing Reflex ± SE: 10 mg/kg indomethacin mol equivalent i.p.; for Potency: % inhibition/protection compared to indomethacin; for Writing Reflex ± SE: number of writhing counted for 30 min

| SMILES | SI [1] | IC50 [1] [µM] | Ulcer Index [2] | % Incidence of Ulcer Divided by 10 [2] | Average Severity of Ulcer [2] | Average of Ulcer Number [2] | Number of Animals with Ulcer [2] | % Protection ([3]; after 30 min) [%] | Latency Period ± SE ([3]; after 30 min) [s] | % Protection ([3]; after 60 min) [%] | Latency Period ± SE ([3]; after 60 min) [s] | % Protection ([3]; after 90 min) [%] | Latency Period ± SE ([3]; after 90 min) [s] | % Protection ([3]; after 120 min) [%] | Latency Period ± SE ([3]; after 120 min) [s] | Potency [3] | toxic symptoms or mortality [4] | % Inhibition/Protection [5] [%] | Potency [5] [%] | Writing Reflex ± SE [5] | also measured |
| --- | --- | --- | --- | --- | --- | --- | --- | --- | --- | --- | --- | --- | --- | --- | --- | --- | --- | --- | --- | --- | --- |
| C#CCOC(=O)C(C)c1ccc(CC(C)C)cc1 (stereo not drawn) [Compound 3, Prop-2-yn-1-yl 2-(4-isobutylphenyl) Propanoate] | 2.262 | 8.6 ± 0.24 | 4.33 | 3.33 | 0.67 | 0.33 | 2/6 | 55.2 | 10.37 ± 1.6 | 48.3 | 10.78 ± 2.1 | 19.2 | 10.62 ± 2.2 | 14.9 | 10.35 ± 1.7 | 26.4 | No toxic symptoms or mortality | 71.8 | 100.0 | 11.3 ± 0.9 |  |
| Cc1ccc(-n2cc(COC(=O)C(C)c3ccc(CC(C)C)cc3)nn2)cc1 (stereo not drawn) [Compound 5d, (1-(p-Tolyl)-1H-1,2,3-triazol-4-yl)methyl 2-(4-isobutylphenyl)propanoate] | 2.158 | 4.47 ± 0.13 | 0 | 0 | 0 | 0 | 0 | 65.0 | 11.02 ± 1.4 | 35.6 | 9.86 ± 0.7 | 20.0 | 10.69 ± 0.9 | 1.2 | 9.12 ± 1.1 | 2.1 | No toxic symptoms or mortality | 82.5 | 114.9 | 7.0 ± 1.3 |  |
| COc1ccccc1-n1cc(COC(=O)C(C)c2ccc(CC(C)C)cc2)nn1 (stereo not drawn) [Compound 5e, (1-(2-Methoxyphenyl)-1H-1,2,3-triazol-4-yl)methyl 2-(4-isobutylphenyl)propanoate] | 0.387 | 14 ± 0.4 | 0 | 0 | 0 | 0 | 0 | 88.8 | 12.61 ± 2.1 | 44.8 | 10.53 ± 1.8 | 36.03 | 12.12 ± 1.7 |  | 11.53 ± 1.3 | 49.6 | No toxic symptoms or mortality | 63.3 | 88.2 | 14.7 ± 1.6 | % Protection ([3]; after 120 min, 10 mg/kg): 28% |
